The values below come from the NIST ThermoML archive (doi:10.1021/je5008795).

± gives the expanded uncertainty stated by the source.

A short description of data set [1]: xn = mol fraction of the nth substance listed. To be noted: 298.15 K, 101 kPa, Liquid, Vibrating tube method.
Data set [2] is described as follows: refractive index (Na D-line) (dimensionless); xn = mol fraction of the nth substance listed. To be noted: 298.15 K, 101 kPa, Liquid, Standard Abbe refractometry.
The conditions of data set [3]: for vapor or sublimation pressure / Normal melting temperature: Crystal; for vapor or sublimation pressure: Transpiration method; for Normal melting temperature: DTA; for mass density: 298.15 K, 101 kPa, Liquid, Vibrating tube method.
Data set [4] can be described thus: Molar enthalpy of transition or fusion. As to conditions: Crystal; DSC.
Data set [5] can be described thus: refractive index (Na D-line) (dimensionless). To be noted: 298.15 K; 101.33 kPa; Liquid; Standard Abbe refractometry.

Regarding `Clc1ccc(Br)cc1` [1-bromo-4-chlorobenzene] + c1ccccc1, the mass density (usually mass per unit of volume) in data set [1] (x1 = 0.00231) is recorded as 875.875 ± 0.16 kg/m3; in data set [1] (x1 = 0.00253), 876.093 ± 0.16 kg/m3; in data set [1] (x1 = 0.00268) it was 876.25 ± 0.16 kg/m3. Besides, the refractive index (commonly the speed of light in vacuum divided by its phase velocity in the sample) in data set [2] (x1 = 0.00231) is reported as 1.49779 ± 0.00031; in data set [2] (x1 = 0.00253), 1.49781 ± 0.00031; in data set [2] (x1 = 0.00268), 1.49782 ± 0.00031.
Take `Brc1ccc(-c2ccc(Br)cc2)cc1` [4,4'-dibromo-1,1'-biphenyl]: the vapor or sublimation pressure (in general, the pressure of vapour in equilibrium with the condensed phase) in data set [3] (358.1 K) was 0.00038 ± 3e-05 kPa; in data set [3] (363.9 K), 0.00067 ± 5e-05 kPa; in data set [3] (365.4 K), 0.00077 ± 6e-05 kPa; in data set [3] (368.4 K) it was 0.00099 ± 7e-05 kPa; in data set [3] (373.5 K), 0.00162 ± 0.00012 kPa; in data set [3] (378.5 K) it was 0.00243 ± 0.00017 kPa. The “vapor or sublimation pressure” value in data set [3] (383.5 K) is reported as 0.00367 ± 0.00026 kPa; in data set [3] (388.6 K), 0.00579 ± 0.00042 kPa; in data set [3] (393.3 K), 0.00851 ± 0.0006 kPa; in data set [3] (396.6 K) it was 0.01049 ± 0.00075 kPa; in data set [3] (399.6 K), 0.0138 ± 0.00098 kPa; in data set [3] (400.4 K), 0.0144 ± 0.001 kPa. Further, the “vapor or sublimation pressure” value was 0.0171 ± 0.0012 kPa in data set [3] (402.6 K) and 0.02039 ± 0.0015 kPa in data set [3] (404.4 K).
Consider `Brc1ccc(-c2ccc(Br)cc2)cc1` [4,4'-dibromo-1,1'-biphenyl] + c1ccccc1, for which the mass density in data set [1] (x1 = 0.00076) came to 875.001 ± 0.2 kg/m3; in data set [1] (x1 = 0.0009), 875.213 ± 0.2 kg/m3; in data set [1] (x1 = 0.00107) it was 875.48 ± 0.2 kg/m3; in data set [1] (x1 = 0.00116), 875.632 ± 0.2 kg/m3. For the same compound, the refractive index in data set [2] (x1 = 0.00076) was 1.49787 ± 0.00031; in data set [2] (x1 = 0.0009), 1.49791 ± 0.00031; in data set [2] (x1 = 0.00107), 1.49796 ± 0.00031; in data set [2] (x1 = 0.00116), 1.49802 ± 0.00031.
In the case of `Brc1ccc(-c2ccccc2)cc1` [4-bromo-1,1'-biphenyl], the “vapor or sublimation pressure” value in data set [3] (303.2 K) stood at 9e-05 ± 1e-05 kPa; in data set [3] (308.2 K), 0.00016 ± 1e-05 kPa; in data set [3] (313 K) it was 0.00027 ± 2e-05 kPa; in data set [3] (318.3 K), 0.00048 ± 4e-05 kPa; in data set [3] (323.4 K), 0.00083 ± 6e-05 kPa; in data set [3] (326.2 K), 0.00109 ± 8e-05 kPa. In addition, the “vapor or sublimation pressure” value in data set [3] (328.2 K) turned out to be 0.00137 ± 0.0001 kPa; in data set [3] (333.3 K), 0.0023 ± 0.00017 kPa; in data set [3] (338.3 K) it was 0.00364 ± 0.00026 kPa; in data set [3] (343.1 K), 0.0056 ± 0.0004 kPa; in data set [3] (348.3 K), 0.00907 ± 0.00066 kPa; in data set [3] (353 K), 0.01426 ± 0.001 kPa. In addition, the “vapor or sublimation pressure” value is recorded as 0.0165 ± 0.0012 kPa in data set [3] (355.7 K), 0.02207 ± 0.0016 kPa in data set [3] (358.4 K) and 0.0253 ± 0.0018 kPa in data set [3] (360.2 K). In data set [3], the Normal melting temperature stood at 89.0 ± 0.5 °C. Moreover, in data set [4], the “Molar enthalpy of transition or fusion” value was found to be 16.3 ± 0.5 kJ/mol.
`Brc1ccc(-c2ccccc2)cc1` [4-bromo-1,1'-biphenyl] + c1ccccc1: the mass density in data set [1] (x1 = 0.00109) came to 874.692 ± 0.16 kg/m3; in data set [1] (x1 = 0.00186), 875.469 ± 0.16 kg/m3; in data set [1] (x1 = 0.00189), 875.45 ± 0.16 kg/m3; in data set [1] (x1 = 0.00237), 875.983 ± 0.17 kg/m3. The refractive index in data set [2] (x1 = 0.00109) is listed as 1.49787 ± 0.00031; in data set [2] (x1 = 0.00186), 1.4981 ± 0.00031; in data set [2] (x1 = 0.00189) it was 1.49809 ± 0.00031; in data set [2] (x1 = 0.00237), 1.4982 ± 0.00031.
Turning to `Brc1c2ccccc2c(Br)c2ccccc12` [9,10-dibromoanthracene], the Normal melting temperature in data set [3] amounted to 224.7 ± 0.4 °C. Also, the “Molar enthalpy of transition or fusion” value in data set [4] was 28.7 ± 0.7 kJ/mol.
The corresponding values for `Clc1c2ccccc2c(Cl)c2ccccc12` [9,10-dichloroanthracene] are 213.5 ± 0.5 °C and 25.1 ± 0.8 kJ/mol.
The corresponding values for `Clc1c2ccccc2cc2ccccc12` [9-chloroanthracene] are 103.5 ± 2.2 °C and 22 ± 0.5 kJ/mol.
As for `c1ccccc1` [benzene], the mass density in data set [3] was 873.633 ± 0.13 kg/m3 [middle of 6 runs]. Moreover, the refractive index in data set [5] was 1.49755 ± 0.00031.
`c1ccccc1` [benzene] + Brc1ccc(-c2ccc(Br)cc2)cc1: the mass density in data set [1] (x2 = 0) is reported as 873.633 ± 0.22 kg/m3. In data set [2] (x2 = 0), the refractive index was determined as 1.49755 ± 0.00031.
For the compound `c1ccccc1` [benzene] + Brc1ccc(-c2ccccc2)cc1, in data set [1] (x2 = 0), the mass density is 873.616 ± 0.16 kg/m3. In addition, in data set [2] (x2 = 0), the refractive index is reported as 1.49755 ± 0.00031.
The corresponding values for `c1ccccc1` [benzene] + Brc1ccc(Br)c2ccccc12 are 873.652 ± 0.21 kg/m3 and 1.49755 ± 0.00031.
The corresponding values for `c1ccccc1` [benzene] + Brc1ccc(Br)cc1 are 873.671 ± 0.19 kg/m3 and 1.49755 ± 0.00031.
In the same order, the values of `c1ccccc1` [benzene] + Brc1ccccc1Br are 873.478 ± 0.19 kg/m3 and 1.49776 ± 0.00031.
On to `c1ccccc1` [benzene] + Clc1ccc(Br)cc1, for which the mass density in data set [1] (x2 = 0) is 873.613 ± 0.16 kg/m3. The refractive index in data set [2] (x2 = 0) is on record as 1.49755 ± 0.00031.
In the case of `Clc1c(Cl)c(Cl)c(Cl)c(Cl)c1Cl` [hexachlorobenzene] + ClC(Cl)(Cl)Cl, the mass density in data set [1] (x1 = 0.00028) is reported as 1584.37 ± 0.27 kg/m3; in data set [1] (x1 = 0.00052) it was 1584.53 ± 0.27 kg/m3; in data set [1] (x1 = 0.00066), 1584.53 ± 0.27 kg/m3; in data set [1] (x1 = 0.00094) it was 1584.63 ± 0.27 kg/m3. Moreover, the refractive index in data set [2] (x1 = 0.00028) amounted to 1.45724 ± 0.00031; in data set [2] (x1 = 0.00052), 1.45734 ± 0.00031; in data set [2] (x1 = 0.00066), 1.45735 ± 0.00031; in data set [2] (x1 = 0.00094), 1.45743 ± 0.00031.
Regarding `ClC(Cl)(Cl)Cl` [tetrachloromethane], the mass density in data set [3] was found to be 1584.26 ± 0.27 kg/m3. Besides, the refractive index in data set [5] was 1.45715 ± 0.00031.
Consider `ClC(Cl)(Cl)Cl` [tetrachloromethane] + Clc1c(Cl)c(Cl)c(Cl)c(Cl)c1Cl, for which the mass density in data set [1] (x2 = 0) was found to be 1584.26 ± 0.27 kg/m3. The refractive index in data set [2] (x2 = 0) is 1.45715 ± 0.00031.
